Results from article PMC7248877, “Synthesis and Spectral Identification of Three Schiff Bases with a 2-(Piperazin-1-yl)-N-(thiophen-2-yl methylene)ethanamine Moiety Acting as Novel Pancreatic Lipase Inhibitors: Thermal, DFT, Antioxidant, Antibacterial, and Molecular Docking Investigations” (Molecules, 2020).

These compounds were tested against T1, porcine pancreatic lipase (Sus scrofa, UniProt P00591) (assay: p-nitrophenyl butyrate hydrolysis assay, absorbance at […] nm).
T1 construct: gene PNLIP
T1 sequence (P00591 1-450): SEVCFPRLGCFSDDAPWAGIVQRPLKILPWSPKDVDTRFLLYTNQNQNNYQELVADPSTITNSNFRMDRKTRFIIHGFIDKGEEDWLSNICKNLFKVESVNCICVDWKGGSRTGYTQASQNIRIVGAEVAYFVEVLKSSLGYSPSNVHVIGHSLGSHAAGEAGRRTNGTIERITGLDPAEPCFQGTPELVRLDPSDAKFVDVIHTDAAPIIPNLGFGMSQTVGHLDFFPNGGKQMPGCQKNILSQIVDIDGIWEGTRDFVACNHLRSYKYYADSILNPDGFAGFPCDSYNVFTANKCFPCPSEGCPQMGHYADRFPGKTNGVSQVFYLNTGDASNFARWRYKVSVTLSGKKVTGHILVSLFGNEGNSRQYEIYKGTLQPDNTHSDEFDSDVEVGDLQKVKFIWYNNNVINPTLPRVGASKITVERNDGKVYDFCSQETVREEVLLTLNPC
Assay type: biochemical

Row | IC50 [mM] | Structure (SMILES)
1 | 1.16 | CC(=NCCN1CCNCC1)c1ccc(Cl)s1 [L1, N-(1-(5-Chlorothiophen-2-yl)ethylidene)-2-(piperazin-1-yl)ethanamine]
2 | 2.24 | C(=N\CCN1CCNCC1)/c1cccs1 [L2, 2-(Piperazin-1-yl)-N-(thiophen-2-ylmethylene)ethanamine]
3 | 0.524 | Brc1ccc(C=NCCN2CCNCC2)s1 [L3, N-((5-Bromothiophen-2-yl)methylene)-2-(piperazin-1-yl)ethanamine]
